Like-named read-outs stand apart in the source and are kept apart here. Where a SMILES comes first, the peptide text is derived from it. [ ]: non-standard residue; d: D form. The star is where a group is joined. Dolaproine = CO[C@@H]([C@@H]1CCCN1)[C@@H](C)C(=O)O; Dil = CC[C@H](C)[C@H](NC)[C@@H](CC(=O)O)OC; X2 = C[C@@H](N*)[C@@H](O)c1ccccc1; NMeV = CN[C@H](C(=O)O)C(C)C
Biological target: BTK (Homo sapiens, UniProt Q06187)
Assay: biochemical
[1] = read-out: BTK inhibition (%), 0.75 uM BTK, […] probe 3l, 15 min preincubation

Sequence of BTK (Q06187 402-655 limits assumed): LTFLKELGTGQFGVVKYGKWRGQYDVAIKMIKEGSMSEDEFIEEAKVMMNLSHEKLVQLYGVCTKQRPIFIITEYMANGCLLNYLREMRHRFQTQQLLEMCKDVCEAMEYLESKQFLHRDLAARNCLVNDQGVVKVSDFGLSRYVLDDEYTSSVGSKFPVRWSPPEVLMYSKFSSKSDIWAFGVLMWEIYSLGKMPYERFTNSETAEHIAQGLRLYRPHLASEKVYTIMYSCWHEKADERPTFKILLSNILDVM

SMILES	inhibition at 10 µM [1]	inhibition at 10 µM (read-out: BTK inhibition (%))
Cc1cc(=O)oc2ccc(O)cc12 [PCM-0216279]	17%	
C=CC(=O)N1CC(N2CCN(C(=O)CNc3cc(C4(C)CC4)c(Cl)cc3O)CC2)C1 [PCM-0215823]	-9.3%	
CC[C@H](C)[C@@H]([C@@H](CC(=O)N1CCC[C@H]1[C@H](OC)[C@@H](C)C(=O)N[C@H](C)[C@@H](O)c1ccccc1)OC)N(C)C(=O)[C@@H](NC(=O)[C@@H](NC)C(C)C)C(C)C [PCM-0215521] (H-[NMeV]V[Dil][Dolaproine]-X2)		-3.9%
O=c1[nH]c2ccc(Cl)cc2c(N[C@@H]2CN3CCC2CC3)c1-c1nc2ccccc2[nH]1 [PCM-0095378]	0%	
Cc1nnsc1C(=O)Nc1ccc(-n2nc(C(F)(F)F)cc2C(F)(F)F)cc1 [PCM-0215731]	22.4%	
CCCC(=O)O[C@]1(C(=O)COC(C)=O)CC[C@H]2[C@@H]3C[C@H](F)C4=CC(=O)C=C[C@]4(C)[C@@]3(F)[C@@H](O)C[C@@]21C [PCM-0214767]	-3.4%	
C=CCNC(N)=S [PCM-0090807]	-18.7%	
CCCCCCCCCCCCN1CCCCCC1=O [PCM-0216037]	-2.3%	
COc1cc(N2CCC(N(C)C)CC2)ccc1Nc1ncc(Cl)c(Nc2ccccc2P(C)(C)=O)n1 [PCM-0215177]	64.8%	
O=C[C@H](O)[C@@H](O)[C@H](O[C@H]1O[C@H](CO)[C@@H](O[C@H]2O[C@H](CO)[C@@H](O[C@H]3O[C@H](CO)[C@@H](O)[C@H](O)[C@H]3O)[C@H](O)[C@H]2O)[C@H](O)[C@H]1O)[C@H](O)CO [PCM-0216456]	0.8%	
CCOC(=O)[C@H](CCc1ccccc1)N[C@@H](C)C(=O)N1[C@H](C(=O)O)C[C@@H]2CCC[C@@H]21 [PCM-0086308]	-3.9%	
CCOC(=O)c1cccc(N)c1 [PCM-0214922]	-2.3%	
Nc1nc(=S)c2[nH]cnc2[nH]1 [PCM-0090185]	-1.6%	
COc1cc(C)c2c(=O)c(-c3ccccc3)coc2c1 [PCM-0216420]	32.4%	
COc1cc2c3c(c1OC)-c1ccccc1C[C@H]3N(C)CC2 [PCM-0215922]	-12.8%	
CCCS(=O)(=O)Nc1ccc(F)c(C(=O)c2c[nH]c3ncc(-c4ccc(Cl)cc4)cc23)c1F [PCM-0095039]	24.8%	
O=C(NCc1ccc(Oc2ccccc2)cc1)c1nc(-c2cc(Br)c(O)c(Br)c2)no1 [PCM-0215261]	94.2%	
COc1ccc(-c2oc3c(CC=C(C)C)c(O[C@@H]4O[C@H](CO)[C@@H](O)[C@H](O)[C@H]4O)cc(O)c3c(=O)c2O[C@@H]2O[C@@H](C)[C@H](O)[C@@H](O)[C@H]2O)cc1 [PCM-0094858]	-0.8%	

SMILES	inhibition at 10 µM [1]	inhibition at 10 µM (read-out: BTK inhibition (%))
C=C[C@H]1CN2CC[C@H]1C[C@@H]2[C@@H](O)c1ccnc2ccccc12 [PCM-0214935]	-17.1%	
O=P(O)(O)C(O)(Cc1cccnc1)P(=O)(O)O [PCM-0090360]	-3.4%	
Nc1c(CC(=O)O)cccc1C(=O)c1ccccc1 [PCM-0214756]	-17.2%	
C/C=C/c1cc(OC)c2c(c1)C(C)C(c1ccc(O)c(OC)c1)O2 (stereo not drawn) [PCM-0216391]	19.3%	
Nc1nc(Nc2ccc(S(N)(=O)=O)cc2)nn1C(=O)c1c(F)cccc1F [PCM-0095002]	84.1%	
Cn1cc(-c2cnn3c(N)c(Br)c([C@@H]4CCCNC4)nc23)cn1 [PCM-0095786]	-6.8%	
O=C1NC(=O)C(c2cnc3ccccn23)=C1c1cn2c3c(cc(F)cc13)CN(C(=O)N1CCCCC1)CC2 [PCM-0215438]	80%	
NC1(c2ccc(-c3nc4ccn5c(=O)[nH]nc5c4cc3-c3ccccc3)cc2)CCC1 [PCM-0095042]	-2.8%	
CNCC(=O)c1ccc(O)c(O)c1 [PCM-0090552]	10.9%	
OCCc1ccc(O)c(O)c1 [PCM-0214956]	-2.3%	
CC(C)(C)[C@]1(O)C[C@@H]2OC(=O)C[C@@]23C(=O)O[C@@H]2OC(=O)[C@H](O)[C@]213 [PCM-0094827]		-6.2%
Nc1ccc(S(N)(=O)=O)cc1 [PCM-0086364]	-9.3%	
NCCCC(O)(P(=O)(O)O)P(=O)(O)O [PCM-0215186]	0.9%	
Nc1ccn([C@@H]2CS[C@H](CO)O2)c(=O)n1 [PCM-0085971]	14%	
CC(=O)OC/C=C(\C)CCC=C(C)C [PCM-0216003]	2.3%	
C=C1CC[C@H]2C(=C)CC[C@H]3C(=C)C(=O)O[C@@H]3[C@@H]12 [PCM-0214878]	32.7%	
O=c1[nH]cnc2[nH]ncc12 [PCM-0064482]	18.7%	
O=C(O)CCc1ccc(O)cc1 [PCM-0215016]	-17.9%	

Now from value to compound, other results behind:

inhibition at 10 µM [1]	SMILES	inhibition at 10 µM (read-out: BTK inhibition (%))
11.1%	C=CC(=O)Nc1cc(Nc2nccc(-n3cc(CN(C)C)c(-c4ccccc4)n3)n2)c(OC)cc1N1CCOCC1 [PCM-0216259]	
0%	COc1cc2c(cc1OC)-c1c(C)c3ccc(OC)c(OC)c3c[n+]1CC2 [PCM-0216326]	
6.2%	CC(C)(O)CC[C@@H](O)[C@](C)(O)[C@H]1CC[C@@]2(O)C3=CC(=O)[C@@H]4C[C@@H](O)[C@@H](O)C[C@]4(C)[C@H]3CC[C@]12C [PCM-0095305]	
-13.1%	COc1ccc(-c2oc3c(CC=C(C)C)c(O[C@@H]4O[C@H](CO)[C@@H](O)[C@H](O)[C@H]4O)cc(O)c3c(=O)c2O[C@@H]2O[C@@H](C)[C@H](O)[C@@H](O)[C@H]2O[C@@H]2O[C@@H](C)[C@H](O)[C@@H](O)[C@H]2O)cc1 [PCM-0216512]	
11.6%	COc1ccc(/C=C/C(=O)c2c(O)cc(OC)cc2OC)cc1 [PCM-0216582]	
-15.6%	O=Cc1ccccc1O[C@@H]1O[C@H](CO)[C@@H](O)[C@H](O)[C@H]1O [PCM-0215148]	
-11%	Cn1c(=O)cc(N2CCC[C@@H](N)C2)n(Cc2ccccc2C#N)c1=O [PCM-0095535]	
-3.9%	Cn1c(=O)cc(C(=O)Nc2ccc3c(c2)OCCO3)c2ccccc21 [PCM-0215702]	
-9.3%	COc1ccc(COc2ccc(CC#N)cc2)cc1 [PCM-0215565]	
6.9%	CCCCOc1ccc(CC(=O)NO)cc1 [PCM-0085771]	
15.2%	CCOCc1nc2c(N)nc3ccccc3c2n1CC(C)(C)O [PCM-0215576]	
6.2%	Cc1cc(NC(=O)Nc2ccc(N(C)C)cc2)c2cc(F)cc(F)c2n1 [PCM-0095106]	
-8.3%	C[C@@H](O[C@H]1OCCN(Cc2n[nH]c(=O)[nH]2)[C@H]1c1ccc(F)cc1)c1cc(C(F)(F)F)cc(C(F)(F)F)c1 [PCM-0214564]	
5.5%	O=C1CCC(N2C(=O)c3ccccc3C2=O)C(=O)N1 (stereo not drawn) [PCM-0064817]	
14.8%	Cn1cc[nH]c1=S [PCM-0086540]	
-11.7%	CCNC(=O)[C@@H]1CCCN1C(=O)[C@H](CCCN=C(N)N)NC(=O)[C@H](CC(C)C)NC(=O)[C@@H](CC(C)C)NC(=O)[C@H](Cc1ccc(O)cc1)NC(=O)[C@H](CO)NC(=O)[C@H](Cc1c[nH]c2ccccc12)NC(=O)[C@H](Cc1cnc[nH]1)NC(=O)[C@@H]1CCC(=O)N1 [PCM-0214915]	
16.3%	Nc1nnc(-c2cccc(Cl)c2Cl)c(N)n1 [PCM-0065504]	
-10.9%	Cc1cccc(C#Cc2ccccc2)n1 [PCM-0065388]	
-17%	Fc1ccc(Cl)cc1-c1nc(Nc2ccncc2)c2nccnc2n1 [PCM-0215428]	
3.1%	CN(C)C(=O)c1ccc(S(=O)(=O)c2ccc(NC(=O)[C@@](C)(O)C(F)(F)F)c(Cl)c2)cc1 [PCM-0215295]	
49.8%	O=C1c2ccccc2C(=O)c2c1ccc(O)c2O [PCM-0095289]	

inhibition at 10 µM [1]	SMILES	inhibition at 10 µM (read-out: BTK inhibition (%))
-47.6%	Nc1c(CC(=O)O)cccc1C(=O)c1ccc(Br)cc1 [PCM-0214777]	
-4.6%	CC(C)(C)C(O)/C=C/c1ccc2c(c1)OCO2 (stereo not drawn) [PCM-0216138]	
-24.9%	C[C@]12CC[C@H](O)CC1=CC[C@@H]1[C@@H]2CC[C@]2(C)C(=O)CC[C@@H]12 [PCM-0214686]	
-1.5%	N[C@H]1C[C@@H]1c1ccc(-c2cccc(O)c2)cc1 [PCM-0095788]	
15.3%	O=C(/C=C/c1ccc(O)cc1)OC[C@H]1O[C@@H](Oc2c(-c3ccc(O)cc3)oc3cc(O)cc(O)c3c2=O)[C@H](O)[C@@H](O)[C@@H]1O [PCM-0216495]	
97.3%	CC(=O)Nc1nc(-c2cccc(NS(=O)(=O)c3cccc4c(N(C)C)cccc34)c2)cs1 [PCM-0215679]	
4.7%	O=C(CCc1ccc(O)cc1)c1c(O)cc(O)cc1O[C@@H]1O[C@H](CO)[C@@H](O)[C@H](O)[C@H]1O [PCM-0089058]	
-11.7%	O=C(O)c1cc(=O)[nH]c(=O)[nH]1 [PCM-0090751]	
-3.9%	O=c1cc(O)c(Cl)c[nH]1 [PCM-0095217]	
23.4%	COc1ccc(-n2c(C)c([N+](=O)[O-])c3ccc(O)cc32)cc1 [PCM-0215272]	
-11.6%	CC1(C)S[C@@H]2[C@H](NC(=O)[C@H](N)c3ccccc3)C(=O)N2[C@H]1C(=O)OCOC(=O)[C@@H]1N2C(=O)C[C@H]2S(=O)(=O)C1(C)C [PCM-0216243]	
8.5%	N#Cc1ccc(Oc2ccc3c(c2)COB3O)cc1 [PCM-0215118]	
0%	CS(=O)(=O)c1ccc(-c2nnc(/C=C/c3nnc(-c4ccc(C#N)cc4)o3)n2-c2ccccc2Cl)nc1 [PCM-0215499]	
7%	COc1ccc(C[C@@H](C)NC[C@H](O)c2ccc(O)c(NC=O)c2)cc1 [PCM-0086341]	
99.3%	COc1cccc(-n2c(=O)[nH]c3cc(Cl)n(-c4ccc(-c5cccc(OC)c5O)cc4)c3c2=O)c1 [PCM-0215555]	
17.8%	CCCCCCCCCC[C@H](C(=O)O)[C@]1(C(=O)O)CCC(=O)O1 [PCM-0215979]	
38.1%	Cc1ccc(C(=O)c2cc(O)c(O)c([N+](=O)[O-])c2)cc1 [PCM-0095576]	
-3.9%	CCCCCCCCCCCCCCCCO [PCM-0214755]	
-15.9%	CC(C(=O)O)c1ccc2c(c1)CC(=O)c1ccccc1S2 (stereo not drawn) [PCM-0095453]	
16.2%	CC(C)=CC(=O)O[C@H]1Cc2cc3ccc(=O)oc3cc2OC1(C)C [PCM-0216507]	
5.5%	COc1cc2ncnc(Sc3nnc(C)s3)c2cc1OC [PCM-0215288]	
